The results in this text go back to US20210196766A1, “DESIGNED BACTERIAL COMPOSITIONS AND USES THEREOF” (Seres Therapeutics, Inc., priority 2019, published 2021).

Like-named read-outs stand apart in the source and are kept apart here.

Assay [1] concerns primary human colon epithelial cell monolayer. Description: Primary epithelial cell monolayer barrier integrity assay (IFN-γ, FITC-dextran). The note with it: for restoration of barrier integrity in the presence of IFN-γ: metabolites, starting at a concentration of about 5 mM.
Description: The assays were performed using a primary epithelial cell monolayer barrier integrity assay. […] The addition of interferon-gamma (IFN-γ) disrupts the tight junctions of the epithelial monolayer and induces apoptosis of epithelial cells. The leakiness of the membrane can be assessed by adding FITC-dextran to the apical side of the apparatus and measuring how rapidly it can pass to the basolateral compartment. A leaky monolayer will allow FITC-dextran to the basal side of the apparatus more quickly than a monolayer with an intact monolayer.
Briefly, the barrier integrity assay was conducted as follows. […] Colon organoids were harvested and trypsinized into a suspension containing few cell clusters and seeded onto Matrigel coated transwell inserts (Corning) at a density of 100,000 cells per insert in 50% L-WRN medium supplemented with 10 μM Y-27632 (Millipore Sigma). […] These primarily stem cell population was differentiated into colonocytes by switching the culture medium to 5% L-WRN for 48 hours. After 24 hours of differentiation, specific SCFA or 5% bacterial culture supernatant treatments were added to apical interface in 100 μL of 5% L-WRN medium and 5-25 ng/ml INFγ (Peprotech), depending on the experiment, was added in 175 μL of 5% L-WRN medium to the basolateral interface and incubated for 48 hours at 37° C. After the 48 hour incubation, colonic epithelial monolayer permeability was assessed by adding 10 μL of 10 ng/ml FITC-Dextran (4 kDa, Sigma) to the apical interface, the organoids were incubated for 1 hour and then 100 μL of medium was collected from the basolateral compartment of each transwell and transferred to a 96 well plate for fluorescence detection.
The test system of assay [2] is HDAC enzymes (HeLa nuclear extract). The assay is described as follows: HDAC inhibition assay of bacterial supernatants (HDAC-Glo I/II, HeLa nuclear extract). The assay is classed as biochemical.
The next assay deals with HT29 cells. The assay is described as follows: Anti-inflammatory assay in IECs: TNF-α-driven IL-8 secretion by HT29 cells. The assay is classed as cell-based, human. To be noted: metabolites.
A short description of assay [3]: GC-MS of short-, medium- and branched-chain fatty acids in supernatants. To be noted: single strain supernatants. From the text:
FIG. 18 provides a table listing bacterial species and the short chain fatty acids (SCFAs), medium chain fatty acids (MCFAs), and branched chain fatty acids (BCFAs) produced by each of the species. […] The limit of detection for each of the fatty acids is provided in the row labeled “Limit of Detection (LOD).” The SCFAs measured included: acetic acid, propanoic acid, and butanoic acid. The MCFAs measured included: pentanoic acid, hexanoic acid, heptanoic acid. The BCFAs measured included: 2-methyl-propanopic acid, 3-methyl-butanoic acid, and 4-methyl-pentaoic acid.
As described supra, certain tryptophan (Trp) metabolites were associated with remission in patients treated with an HHSP. Accordingly, Applicant tested various bacterial species for the presence of SCFA or tryptophan metabolites in their supernatants. The presence of the tryptophan metabolites was determined using a colorimetric assay for detection of indolic compounds (Indole Reagent, Anaerob Systems). Indole produces a light blue color in this assay, while other Trp metabolites produce purple color. The presence of SCFAs were tested using the HDAC assay (described supra). Supernatants of selected strains that were identified as producers of Trp metabolites by the colorimetric indole assay, and/or producers of SCFAs by the HDAC assay were further analyzed by GC-MS to identify the specific metabolites produced.

In assay [1] (5 mM, positive control), `CCCC(=O)O` [butyrate] registered a decrease of permeability of 50%. The compound Parabacteroides distasonis came in with an HDAC cluster assignment in assay [2] of 3. For Clostridium clostridioforme, the HDAC cluster assignment in assay [2] is on record as 6.

On to `CC(=O)O` [acetate], for which, in the assay with HT29 cells, the “TNF-α-dependent IL-8 secretion” value was “reduced levels of TNF-α-dependent IL-8 secretion”.

Take Clostridium disporicum: the HDAC cluster assignment in assay [2] is given as 0.

In the case of Clostridium tertium, the HDAC cluster assignment in assay [2] was 5.

For `O=C(O)CCc1c[nH]c2ccccc12` [3-indolepropionic acid], in assay [1], the “restoration of barrier integrity in the presence of IFN-γ” value is listed as “restored barrier integrity”.

In the case of Clostridium glycolicum, the hexanoate production entry in assay [3] is reported as “Hexanoate producing”. As to Clostridium mayombei, in assay [2], the HDAC cluster assignment turned out to be 2. In turn, Clostridium sp 7 2 43FAA registered an HDAC cluster assignment in assay [2] (pattern of HDAC inhibition across nutrient sources) of 5. Also, in assay [2] (supernatants of strains grown in PY medium with one of seven C sources at 0.5%), the “HDAC Inhibition in any C source (25/18% cutoff)” value is 1 (If a strain exhibits HDACi activity of at least 0.25 in any nutrient, or 0.18 in fucose, it is considered to have HDACi activity and it is marked with “1”). Take `CCC(=O)O` [propionate]: the “restoration of barrier integrity in the presence of IFN-γ” value in assay [1] is recorded as “restored barrier integrity”. The “TNF-α-dependent IL-8 secretion” value with HT29 cells is given as “reduced levels of TNF-α-dependent IL-8 secretion”.
